Tests used:
Experiment in all cases: relative viability (nuclei count vs DMSO), 5 days (fraction); higher = more cells survive
[1] = compound: COC1=CC=C(C=C1)CN2C=CC3=C2C=C(C=C3)C(=O)NO
Procedure, shortened: (§1)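 Viability is treated-well nuclei as a fraction of vehicle-well nuclei, reported as the median across plates. Before counting, lung cancer cell lines were kept overnight at 37 °C in 1536-well plates, pinned with five √10-spaced library-drug doses on vehicle-anchored plates, and left 5 days without medium change, then fixed, permeabilised and Hoechst-stained in one step, imaged at 4× and counted by MetaXpress. A plate passed only if control CV was below 25% and at least one doubling occurred.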

Veliparib = compound: C[C@]1(c2nc3c(C(N)=O)cccc3[nH]2)CCCN1 [Veliparib]
Procedure, shortened: as §1

[2] = compound: COC1=CC=C(C=C1)CN2C=CC3=C2C=C(C=C3)C(=O)NO + Cc1nc(NC(=O)N2CCC[C@H]2C(N)=O)sc1-c1ccnc(C(C)(C)C(F)(F)F)c1 [Alpelisib] (partner 2 µM)
Procedure, shortened: (§2)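 Lung cancer cell lines, seeded in 1536-well plates, were treated the following day by pin tool with a single drug or with five library-drug doses (not always all listed) in √10 steps on top of a fixed anchor-drug dose. Cells were fixed and nuclei stained in one step after 5 days, and nuclei were counted. Relative viability is the nuclei count for treated wells divided by that for vehicle wells, reported as medians of duplicate plates.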

Veliparib + Pemetrexed = compound: C[C@]1(c2nc3c(C(N)=O)cccc3[nH]2)CCCN1 [Veliparib] + Nc1nc2[nH]cc(CCc3ccc(C(=O)N[C@@H](CCC(=O)O)C(=O)O)cc3)c2c(=O)[nH]1 [Pemetrexed] (partner 0.2 µM)
Procedure, shortened: as §2

Cell Line | relative viability ([1]; 0.08 µM) | relative viability ([1]; 0.253 µM) | relative viability ([1]; 0.8 µM) | relative viability ([1]; 2.53 µM) | relative viability ([1]; 8 µM) | relative viability (Veliparib; 0.02 µM) | relative viability (Veliparib; 0.06325 µM) | relative viability (Veliparib; 0.2 µM) | relative viability (Veliparib; 0.6325 µM) | relative viability (Veliparib; 2 µM) | relative viability ([2]; first compound 0.08 µM) | relative viability ([2]; first compound 0.253 µM) | relative viability ([2]; first compound 0.8 µM) | relative viability ([2]; first compound 2.53 µM) | relative viability ([2]; first compound 8 µM) | relative viability (Veliparib + Pemetrexed; first compound 0.02 µM) | relative viability (Veliparib + Pemetrexed; first compound 0.06325 µM) | relative viability (Veliparib + Pemetrexed; first compound 0.2 µM) | relative viability (Veliparib + Pemetrexed; first compound 0.6325 µM) | relative viability (Veliparib + Pemetrexed; first compound 2 µM)
NCI-H1437 | 0.912 | 0.978 | 1.05 | 1.06 | 1.05 | 0.815 | 0.958 | 0.971 | 0.972 | 0.963 | 0.827 | 1.04 | 0.958 | 0.953 | 1.01 | 0.31 | 0.276 | 0.325 | 0.356 | 0.34
NCI-H1563 | 0.843 | 1.09 | 0.955 | 0.968 | 0.908 | 0.851 | 0.953 | 0.956 | 0.966 | 1.05 | 0.798 | 0.947 | 0.946 | 0.964 | 0.839 | 0.694 | 0.766 | 0.742 | 0.728 | 0.685
NCI-H1651 | 0.918 | 0.963 | 0.969 | 0.91 | 0.926 | 0.977 | 0.906 | 0.96 | 0.882 | 0.915 | 0.993 | 1.06 | 0.964 | 0.789 | 0.723 | 0.55 | 0.65 | 0.578 | 0.537 | 0.563
NCI-H1666 | 0.891 | 0.99 | 1.09 | 1.03 | 1.03 | 0.943 | 0.976 | 0.981 | 0.876 | 0.937 | 1.07 | 1.04 | 1.01 | 1.04 | 1.36 | 0.866 | 0.782 | 0.879 | 0.866 | 0.898
NCI-H1734 | – | 0.957 | 1.16 | 1.02 | 0.73 | 0.82 | 0.857 | 0.957 | 0.858 | 0.997 | – | 0.676 | 0.717 | 0.622 | 0.689 | – | 0.396 | 0.398 | 0.389 | 0.392
NCI-H1755 | 0.869 | 1.03 | 0.965 | 0.993 | 0.973 | 1.02 | 0.957 | 1.02 | 0.913 | 0.963 | 0.819 | 0.964 | 0.913 | 0.995 | 0.928 | 0.405 | 0.43 | 0.397 | 0.392 | 0.444
NCI-H1792 | 0.952 | 0.883 | 0.99 | 0.766 | 0.795 | 0.825 | 0.694 | 0.943 | 0.966 | 0.718 | 0.663 | 0.765 | 0.744 | 0.741 | 0.617 | 0.724 | 0.503 | 0.653 | 0.786 | 0.66
NCI-H1793 | – | 1 | 1.02 | 1.03 | 1.01 | 0.881 | 0.923 | 0.904 | 0.865 | 0.932 | 0.626 | 0.874 | 0.786 | 0.546 | 0.728 | 0.755 | 0.763 | 0.935 | 1.07 | 0.875
NCI-H1915 | 0.888 | 0.992 | 1.02 | 0.982 | 0.881 | 0.949 | 0.881 | 0.786 | 0.9 | 0.928 | 1.02 | 1.07 | 1.06 | 1.08 | 1.02 | 0.532 | 0.463 | 0.537 | 0.491 | 0.487
NCI-H1944 | – | 0.986 | 0.987 | 0.947 | 0.955 | 0.878 | 0.961 | 0.765 | 0.789 | 0.894 | – | 0.897 | 0.731 | 0.774 | 0.795 | 0.596 | 0.695 | 0.547 | 0.607 | 0.615
NCI-H1975 | 0.862 | 0.976 | 0.923 | 0.979 | 0.872 | 1.03 | 0.876 | 0.903 | 0.884 | 0.861 | 0.699 | 0.711 | 0.644 | 0.592 | 0.547 | 0.292 | 0.332 | 0.295 | 0.292 | 0.311
NCI-H1993 | 0.932 | 0.9 | 1.06 | 0.969 | 0.888 | 0.693 | 0.883 | 0.87 | 1.05 | 0.929 | 0.613 | 0.671 | 0.669 | 0.745 | 0.795 | – | 0.708 | 0.616 | 0.632 | 0.627
NCI-H2009 | 0.926 | 0.978 | 1.01 | 0.993 | 0.913 | 0.918 | 0.922 | 0.972 | 0.931 | 1.1 | 1.15 | 1.17 | 1.05 | 1.24 | 1.09 | 1.09 | 0.952 | 0.957 | 0.978 | 1.07
NCI-H2023 | 0.908 | 1.02 | 1.02 | 0.949 | 0.87 | 0.853 | 0.939 | 0.919 | 0.85 | 0.928 | 0.58 | 0.646 | 0.507 | 0.586 | 0.639 | – | 0.212 | 0.27 | 0.221 | 0.231
NCI-H2085 | 1.01 | 0.991 | 1.04 | 0.996 | 0.968 | 0.851 | 0.999 | 0.983 | 0.922 | 1.01 | 0.968 | 0.981 | 1.1 | 0.969 | 1.02 | 0.58 | 0.952 | 0.911 | 0.875 | 0.802
NCI-H2087 | 0.913 | 1 | 1.19 | 0.935 | 0.85 | 0.854 | 0.97 | 0.936 | 0.955 | 1.05 | 1.08 | 1.08 | 1.21 | 1.13 | 0.864 | 0.715 | 0.601 | 0.639 | 0.622 | 0.635
